Measurements as given in the kinase profiling compilation of Christmann-Franck et al. (2016).
pKi: −log10 of the molar value.

Target: SGK1 (human) (UniProt O00141)
Assay: Flashplate

SGK1 (human), sequence (O00141 whole entry, looked up): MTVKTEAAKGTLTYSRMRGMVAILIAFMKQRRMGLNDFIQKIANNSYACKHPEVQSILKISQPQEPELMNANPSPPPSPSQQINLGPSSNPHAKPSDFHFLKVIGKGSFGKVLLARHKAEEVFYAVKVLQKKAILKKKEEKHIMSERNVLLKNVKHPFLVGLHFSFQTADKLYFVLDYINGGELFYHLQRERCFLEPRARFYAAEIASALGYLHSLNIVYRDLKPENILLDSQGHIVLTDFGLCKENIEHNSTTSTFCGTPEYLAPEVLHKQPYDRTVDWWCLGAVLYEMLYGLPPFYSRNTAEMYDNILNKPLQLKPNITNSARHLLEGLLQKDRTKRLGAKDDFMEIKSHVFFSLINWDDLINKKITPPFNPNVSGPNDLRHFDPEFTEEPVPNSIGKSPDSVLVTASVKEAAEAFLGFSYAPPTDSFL

Structure (SMILES)	pKi
Cc1c(-c2ccc3[nH]nc(N)c3c2)nnn1Cc1ccccc1	6.50
Clc1ccc(-c2n[nH]cc2-c2ccncn2)cc1Cl	< 5.00
OCCCNc1ncnc2[nH]cc(-c3ccccc3)c12	< 5.10
NCCCOc1cncc(/C=C/c2ccncc2)c1	< 5.00
Fc1ccc(-c2nc3cnccn3c2-c2ccnc(NCC3CC3)n2)cc1	< 5.00
Cc1cccc(NC(=O)Nc2ccc(-c3csc4c(C#CCN5CCOCC5)cnc(N)c34)cc2)c1	5.20
CN(C)CC(=O)Nc1n[nH]c2ccc(-c3cn(Cc4ccccc4)nn3)cc12	5.70
OCCNc1cc2cc(-c3ccccc3)ccc2cn1	< 5.00
C[C@]1(O)C[C@@H](c2nc(-c3ccc4ccc(-c5ccccc5)nc4c3)c3c(N)nccn32)C1	< 5.00
Cc1nc2ccccn2c1-c1csc(Nc2ccc(O)cc2)n1	< 5.00
COc1cccc([C@@H](C)NC(=O)c2ccc(-c3ccncc3)c(F)c2)c1	6.50
CNS(=O)(=O)c1ccccc1Nc1nc(Nc2cc(OC)c(OC)c(OC)c2)ncc1Cl	< 5.30
O=C(Nc1cnccn1)Nc1ccnc2cc(C(F)(F)F)ccc12	6.00
c1ccc(-c2c[nH]c3ncnc(N4CCCCC4)c23)cc1	< 5.20
Oc1ccc(-c2n[nH]c(Nc3cccc(Cl)c3)c2-c2ccc(O)cc2)cc1	6.20
CN(C)CC(C)(C)CNc1nccc(-c2c(-c3ccc(F)cc3)nc3cnccn23)n1	< 5.00
CCCC(=O)Nc1nn(C(=O)CC)c2nc3ccccc3cc12	< 5.00
Nc1ccc(-c2cncc(OC[C@@H](N)Cc3c[nH]c4ccccc34)c2)cc1C(=O)c1cccc(Cl)c1	< 5.00
NC(=O)c1cn(-c2ccc(O)cc2Cl)c2cc(-c3ccncc3)ccc2c1=O	5.10

Structure (SMILES)	pKi
O=C(Nc1n[nH]c2ccc(-c3cn(Cc4ccccc4)nn3)cc12)c1cccc(F)c1	7.00
COc1cc(-c2ccc3c(c2)NC(=O)c2ccc(-c4ccccc4NS(C)(=O)=O)cc2N3)cc(OC)c1OC	< 5.10
CC(C)(C)OC(=O)n1ncc2cc(Nc3c(NCc4ccc(S(N)(=O)=O)cc4)c(=O)c3=O)ccc21	< 5.00
Cc1nccn2c(-c3ccnc(NCCC(C)(C)O)n3)c(-c3ccc(F)cc3F)nc12	< 5.00
Cc1c(Cl)c(N2CCC(CN)C2)nc2[nH]cc(C(=O)O)c(=O)c12 (stereo unspecified)	< 5.00
CNC(=O)c1ccccc1Sc1ccc2c(/C=C/c3ccccn3)n[nH]c2c1	< 5.00
Cn1cc(-c2ccncn2)c(-c2ccc(F)cc2)n1	< 5.00
COc1cccc(C(CN)NC(=O)c2ccc(-c3ccncc3)cc2)c1 (stereo unspecified)	6.60
CCCC(=O)Nc1n[nH]c2ccc(-c3cn(Cc4ccccc4)nn3)cc12	6.00
O=C1Cc2c([nH]c3ccc(Br)cc23)-c2ncccc2N1	< 5.00
Cc1cc(OC2CCCC2)c(NC(=O)Nc2cnc(C#N)cn2)cc1Cl	< 5.00
CCN(CC)CCCNc1cccc(-c2nc3c(C(N)=O)cccc3[nH]2)n1	< 5.00
COc1ccc(-c2ccc(NC(=O)Nc3ccc(F)c(C)c3)cc2)c2c(N)noc12	< 5.00
COc1cc(-c2ccc3c(c2)Nc2ccc(CCOc4ccc(N5CCOCC5)cc4)cc2NC3=O)ccc1CC#N	< 5.00
COc1cc(Nc2ncc([N+](=O)[O-])c(Nc3ccccc3C(N)=O)n2)cc(OC)c1OC	6.70
N#CC1=C(N)n2c(s/c(=C\c3ccco3)c2=O)=C(C(N)=O)C1c1ccco1 (stereo unspecified)	< 5.00
N[C@H](COc1cncc(-c2ccc3c(c2)CC(=O)N3)c1)Cc1c[nH]c2ccccc12	5.90
Cc1cccc(/C=N/Nc2cc(N3CCOCC3)nc(OCCc3ccccn3)n2)c1	< 5.00

Now from value to molecule:

pKi	Structure (SMILES)
5.70	C[C@@H](NC(=O)c1ccc(-c2ccncc2)cc1)c1ccccc1
5.60	c1cnc2nc(-c3ccc4[nH]ncc4c3)c(NC3CCCCC3)n2c1
< 5.00	CC(C)NC(=O)COc1cccc(-c2nc(Nc3ccc4[nH]ncc4c3)c3ccccc3n2)c1
< 5.00	Brc1ccc2c(c1)-c1[nH]ncc1C2
< 5.00	N#Cc1ccc(-c2n[nH]c3c2Cc2ccc(OCCCCN4CCOCC4)cc2-3)cn1
7.10	Cc1n[nH]c2ccc(-c3cncc(OC[C@@H](N)Cc4ccc(Cl)c(Cl)c4)c3)cc12
< 5.00	Cc1cc(C)cc(NC(=O)Nc2ccc(-c3cccc4snc(N)c34)cc2)c1
5.20	Cc1cc(Cl)ccc1NC(=S)NNC(=O)C(O)(c1ccccc1)c1ccccc1
< 5.00	CCCCn1c(NC(=O)c2ccc(C#N)cc2)nc2cc(N(C)C(=O)C3CCCCC3)ccc21
< 5.00	Cc1ccc(-c2cnc(N)c3c(-c4ccc(NC(=O)Nc5cccc(F)c5)cc4)csc23)cn1
6.00	O[C@H]1CC[C@H](Nc2cc(Cl)nc(-c3c[nH]c4ncccc34)n2)CC1
5.80	CCCC(=O)Nc1n[nH]c2ccc(-c3nnn(Cc4ccccc4)c3-c3ccccc3)cc12
< 5.00	COc1ccc(/C=N/Nc2ncnc3c2[nH]c2ccccc23)cc1OC
5.00	COc1cc(-c2ccc3c(c2)Nc2ccc(C(=O)NCCNC(C)=O)cc2NC3=O)ccc1O
< 5.20	CCOc1nc(C(=O)NCc2ccccc2S(N)(=O)=O)cc(N)c1C#N
< 5.00	Nc1ncnc2sc3c(c12)-c1ccc(NC(=O)Nc2ccccc2)cc1CC3
< 5.00	CCc1c(-c2ccc(C(C)(C)O)cc2)[nH]c2nccnc12
< 5.00	Nc1ncnc2onc(-c3ccc(NC(=O)Nc4cccc(C(F)(F)F)c4)cc3)c12
< 5.00	Cc1ccc(-c2nn(C(C)(C)C)c3ncnc(N)c23)cc1
< 5.00	COCCO[C@H]1CC[C@H](n2nc(-c3ccc(Nc4nc5cc(C)cc(C)c5o4)cc3)c3c(N)ncnc32)CC1

pKi	Structure (SMILES)
5.50	O=C(NCc1ccccc1)c1ccc(-c2ccncc2)cc1
< 5.00	NCCNS(=O)(=O)c1cccc(C(=O)Nc2ccc(-c3n[nH]c(=O)c4ccccc34)cc2)c1
< 5.00	CN1CCN(c2cccc(Nc3nccc(-c4c(C(N)=O)nc5ccccn45)n3)c2)CC1
< 5.00	COc1ccc2c(NC(=O)Nc3cccc(Br)n3)ccnc2c1
7.20	Nc1n[nH]c2ccc(-c3nnn(Cc4ccccc4)c3I)cc12
< 5.00	Nc1nccc2scc(-c3ccc(NC(=O)Nc4cccc(F)c4)cc3)c12
< 5.00	OC(COc1cncc(/C=C/c2ccncc2)c1)Cc1c[nH]c2ccccc12 (stereo unspecified)
< 5.00	CC(C)N(C(=O)Nc1ccc2nc(-c3ccco3)c(-c3ccco3)nc2c1)C(C)C
< 5.00	O=C(N[C@H](CO)Cc1ccccc1)c1ccc(-c2ccncc2)cc1F
6.00	O=S(=O)(NCCNC/C=C/c1ccc(Br)cc1)c1cccc2cnccc12
< 5.00	C/C(=N/NC(=N)N)c1cc(NC(=O)NCCCN(C)CCCNC(=O)Nc2cc(/C(C)=N\NC(=N)N)cc(/C(C)=N/NC(=N)N)c2)cc(/C(C)=N/NC(=N)N)c1
< 5.00	CCCCNc1ccc2c3c(cccc13)C(=O)N(CCNCCO)C2=O
5.30	CNC(=O)c1cnc(N)c2c(-c3ccc(NC(=O)Nc4cc(C)ccc4F)cc3)csc12
< 5.00	Cc1ccc(NC(=O)Nc2ccc(-c3cccc4c3CNC4=O)cc2)cc1C
5.90	CC(C)Nc1c(-c2ccc3[nH]ncc3c2)nc2ncccn12
5.80	Nc1nnc(-c2cc3c(Oc4ccc(Cl)cc4)cncc3s2)o1
< 5.00	Cc1cccc(-c2c(-c3ccncc3)nc(NC[C@@H](N)Cc3ccccc3)n(C)c2=O)c1
< 5.00	N#Cc1ncc2nc1OCCCCCOc1cc(CCCO)c(Cl)cc1NC(=O)N2
< 5.00	N[C@@H]1[C@H]2CN(c3nc4c(cc3F)c(=O)c(C(=O)O)cn4-c3ccc(F)cc3F)C[C@@H]12
